Publication PMC8143291, “Cytotoxicity and Microbicidal Activity of Commonly Used Organic Solvents: A Comparative Study and Application to a Standardized Extract from Vaccinium macrocarpon” (Toxics, 2021)

Columns and labels:
S. pyogenes SAIMC 10535 = assay: Dehydrogenase activity (DEHA) MTT test after BMD; type: cell-based, Streptococcus pyogenes; conditions: 24 h exposure; % against untreated control; ± SD; n = 3
Description: (§1) The cell dehydrogenase (DEHA, redox, metabolic) activity of all samples was measured at the end of the BMD assay, based on reducing the MTT dye to formazan by the membrane located bacterial enzyme NADH: ubiquinone reductase (H^+-translocation). The protocol of Wang et al. was applied after minor modifications. Briefly, each sample was incubated for 120 min at 37 °C with MTT at a final concentration of 0.5 mg/mL in the culture medium. The resulting non-soluble violet formazan crystals were dissolved with an equal volume of 2-propanol supplemented with 5% formic acid. The absorbance was measured at 550 nm against a blank solution containing the respective volumes of MHB and MTT.
(§2) The cell viability is presented as a percentage of the untreated control. At least four wells were seeded for every concentration. Three independent assays were performed (n = 3). […] The respiratory activity of the bacterial cultures was calculated as a percentage against the untreated control.

[1] = test system: Staphylococcus epidermidis, Salmonella paratyphi A, Vibrio cholerae, Shigella flexneri and Pseudomonas oleovorans; conditions: cited from earlier work
[2] = test system: S. Aureus MRSA NBIMCC 8327; assay: Dehydrogenase activity (DEHA) MTT test after BMD; type: cell-based, Staphylococcus aureus; conditions: 24 h exposure; % against untreated control; ± SD; n = 3
Description: as §1
The IC50 values from the MTT assay were evaluated with a non-linear regression analysis (Curve fit, GraphPad Prizm 6.01 software, GraphPad Software Inc., San Diego, CA, USA) using sigmoidal concentration–response curves. The cell viability is presented as a percentage of the untreated control. […] The maximum tolerated concentration (MTC) for the cell lines was determined from three independent assays according to ISO 10993-5 as the maximum concentration at which at least 70% of the cells were viable (nonlin fit, range, GraphPad Prizm 6.01 software) GraphPad Software Inc., San Diego, CA, USA). […] The respiratory activity of the bacterial cultures was calculated as a percentage against the untreated control.

E. faecalis ATCC 29212 = assay: Dehydrogenase activity (DEHA) MTT test after BMD; type: cell-based, Enterococcus faecalis; conditions: 24 h exposure; % against untreated control; ± SD; n = 3
Description: as §1, §2

P. aeruginosa ATCC 27853 = assay: Dehydrogenase activity (DEHA) MTT test after BMD; type: cell-based, Pseudomonas aeruginosa; conditions: for DEHA (dehydrogenase activity): 24 h exposure, % against untreated control, ± SD, n = 3
Description: as §1, §2

[3] = test system: CCL-1 (transformed mouse fibroblasts, NCTC clone 929); assay: MTT dye-reduction cytotoxicity assay (ISO 10993-5); type: cell-based; conditions: for MTC (maximum tolerated concentration): at least 70% of cells viable
Source text: (§3) The cell lines utilized in this study included the human tumor lines A-375 (malignant melanoma) and A-431 (non-melanoma epidermoid squamous skin carcinoma) as well as the models for non-tumorigenic cells—HaCaT (immortalized human keratinocytes) and CCL-1^TM (transformed mouse fibroblasts, NCTC clone 929). The first three cell lines were obtained from CLS Cell Lines Service (GmbH, Eppelheim, Germany). CCL-1^TM was purchased from the American Type Culture Collection (ATCC, Manassas, VA, USA). Cells were maintained in a controlled environment—sterile cell culture flasks in a CO2 incubator Panasonic MCO-18AC (Panasonic Healthcare co., ltd, Oizumi-Machi, Japan) at 37 °C and a humidified atmosphere containing 5% CO2. CCL-1 was cultured in MEM with 10% heat-inactivated horse serum and 2 mM L-glutamine, and the cell culture medium for the rest of the cell lines was DMEM-HG with 4.5 g/L glucose with the addition of 10% heat-inactivated fetal bovine serum and 4 mM L-glutamine. Pen/strep (concentration of penicillin G sodium 10^5 Units/L and of streptomycin sulfate 100 mg/L) was added to both culture media. The cell lines were maintained as an adherent monolayer in a log phase. The cells were sub-cultivated about 1–3 times per week after the monolayer reached 80–90% confluence. The medium was removed from the flask, and the cell monolayer was washed with 3–5 mL PBS. The cells were incubated with 0.05% EDTA in PBS for 8–10 min, followed by the next step where all cell lines were subjected to enzyme cell detachment. HaCaT and CCL-1 monolayers were detached with 1 mL solution of trypsin/EDTA (0.1%/0.05% for HaCaT and 0.25% (w/v)/0.53 mM for CCL-1) and incubated for 2–5 min at 37 °C (for HaCaT) or at room temperature (for CCL-1 cells), whereas Accutase® was used for A-375 and A-431 lines. The incubation lasted until the separation and dispersion of the cells in the monolayer were observed using light microscopy. In the end, all cell lines were resuspended in 10 mL medium and centrifuged for 3 min at 300× g. The cell pellet was resuspended in fresh medium and sub-cultivated at a seeding density of 1.0 × 10^4 cells/cm^2.
(§4) The MTT test was performed in order to determine the median inhibitory (IC50) and MTC concentrations of the solvents and PAC according to Annex C, ISO 10993-5 [2, 21]. Briefly, 100 µL of the cell suspension (1 × 10^5 cells/mL) were seeded per well in 96-well plates with a flat bottom. The cells were incubated for 24 h, allowing them to enter the log phase of their growth. On the 24th hour, the cells were treated with the solvents or CystiCran® solutions in concentrations ranging between 0.004% and 2% volume fraction (v/v) and incubated further for 72 h. The incubation periods are following the recommendations of the FDA guide for the use of ISO 10993-1 [1]. At the end of the incubation period, 10 µL of an MTT solution (5 mg/mL) were added to each well, and the plates were kept at 37 °C for 2 hours. Thereafter, the medium was aspirated, and the formed formazan crystals were dissolved in 100 μL/well of 2-propanol supplemented with 5% formic acid. The same solvent was used as a blank. Untreated cells were considered as a negative control. […] The absorption was measured at 540 nm (reference filter at 690 nm) on a microplate reader ELx800 (BioTek Instruments, Inc., Winooski, VT, Winooski, VT, USA).
The IC50 values from the MTT assay were evaluated with a non-linear regression analysis (Curve fit, GraphPad Prizm 6.01 software, GraphPad Software Inc., San Diego, CA, USA) using sigmoidal concentration–response curves. The cell viability is presented as a percentage of the untreated control. At least four wells were seeded for every concentration. Three independent assays were performed (n = 3).

[4] = test system: breast cancer, mouse macrophage and human umbilical vein endothelial cells; set-up: method as in doi:10.17795/ajmb-33453; conditions: cited from earlier work
[5] = test system: A-431 (non-melanoma epidermoid squamous skin carcinoma); assay: MTT dye-reduction cytotoxicity assay (ISO 10993-5); type: cell-based, human; conditions: solvent alone, n = 3; for MTC (maximum tolerated concentration): 72 h, at least 70% of cells viable
Source text: as §3
as §4, with “blank.” for “blank. Untreated cells were considered as a negative control.”
The IC50 values from the MTT assay were evaluated with a non-linear regression analysis (Curve fit, GraphPad Prizm 6.01 software, GraphPad Software Inc., San Diego, CA, USA) using sigmoidal concentration–response curves. […]

| Molecule | DEHA (dehydrogenase activity) (S. pyogenes SAIMC 10535) [%] | MTC [1] [% volume fraction] | DEHA (dehydrogenase activity) [2] [%] | DEHA (dehydrogenase activity) (E. faecalis ATCC 29212) [%] | DEHA (dehydrogenase activity) (P. aeruginosa ATCC 27853) [%] | MTC (maximum tolerated concentration) ([3]; solvent alone, 72 h, n = 3) | growth inhibition ([1]; at a concentration of 1% v/v) [%] | maximum tolerated concentration (MTC) / applicable concentration [4] | MTC (maximum tolerated concentration) [5] | IC50 (CI 95%) ([5]; 72 h incubation) | IC50 value ([3]; 72 h, equals 1.16% v/v) [mg/mL] | IC50 (CI 95%) ([3]; solvent alone, 72 h incubation, n = 3) | suppression of the respiratory activity (P. aeruginosa ATCC 27853; P. aeruginosa) [%] |
| --- | --- | --- | --- | --- | --- | --- | --- | --- | --- | --- | --- | --- | --- |
| C[S+](C)[O-] [DMSO, dimethyl sulfoxide] | 27.27 ± 0.02 | 3 | 13.01 ± 0.05 | 29.86 ± 0.08 | 9.78 ± 0.01 |  |  |  |  |  |  |  |  |
| CCO [EtOH, ethanol] |  |  |  |  |  | 1.15 % (v/v) | 19 | up to 0.5 % v/v | > 2 % (v/v) | > 2 % (v/v) |  |  |  |
| polyethylene glycol of average molecular weight 400 [PEG-400] | 23.66 ± 0.02 |  |  | 65.33 ± 0.06 | 15.31 ± 0.04 | 0.21 % (v/v) |  |  | 0.89 % (v/v) |  | 13 | 1.16 % (v/v) | ~85 |
